# Data as given in patent US7169782B2, “Aryl substituted thiazolidinones and the use thereof” (Euro-Celtique S.A., priority 2001, dated 2007).
# pKi: −log10 of the molar value.
# Target: rBIIa/beta 1 sodium channels expressed in Xenopus oocytes (Rattus norvegicus, UniProt P04775)
# Experiment: Electrophysiological assay, two-electrode voltage clamp in oocytes, inactivated-state protocol
# Format: cell-based
# Conditions: not given
# Protocol: An electrophysiological assay was used to measure potencies of compounds of the present invention rBIIa/beta 1 sodium channels expressed in Xenopus oocytes.
# Preparation of cRNA encoding cloned rat brain type IIa (rBIIa) and beta 1 (β1): cDNA clones encoding the rat brain beta 1 subunit are cloned in house using standard methods, and mRNA are prepared by standard methods. mRNA encoding rBIIa is provided by Dr. A. Golden (UC Irvine). The mRNAs are diluted and stored at −80° C. in 1 μL aliquots until injection.
# Preparation of oocytes: Mature female Xenopus laevis are anaesthetized (20–40 min) using 0.15% 3-aminobenzoic acid ethyl ester (MS-222) following established procedures (Woodward, R. M., et al., Mol. Pharmacol. 41:89–103 (1992)).
# Two to six ovarian lobes are surgically removed. Oocytes at developmental stages V–VI are dissected from the ovary, wherein the oocytes are still surrounded by enveloping ovarian tissues. Oocytes are defolliculated on the day of surgery by treatment with collagenase (0.5 mg/mL Sigma Type I, or Boehringer Mannheim Type A, for 0.5–1 hr). Treated oocytes are vortexed to dislodge epithelia, washed repeatedly and stored in Barth's medium containing 88 mM NaCl, 1 mM KCl, 0.41 mM CaCl2, 0.33 mM Ca(NO3)2, 0.82 mM MgSO4, 2.4 mM NaHCO3, 5 mM HEPES, pH 7.4 adjusted with 0.1 mg/mL gentamycin sulphate.
# Micro-injection of oocytes: Defolliculated oocytes are micro-injected using a Nanoject injection system (Drummond Scientific Co., Broomall, Pa.). Injection pipettes are beveled to minimize clogging. Tip diameter of injection pipettes is 15–35 μm. Oocytes are microinjected with approximately 50 nL 1:10 ratio mixtures of cRNAs for rBIIa and beta 1 respectively.
# Electrophysiology: Membrane current responses are recorded in frog Ringer solution containing 115 mM NaCl, 2 mM KCl, 1.8 mM CaCl2, 5 mM HEPES, pH 7.4. Electrical recordings are made using a conventional two-electrode voltage clamp (Dagan TEV-200) over periods ranging between 1–7 days following injection. The recording chamber is a simple gravity fed flow-through chamber (volume […] depending on adjustment of aspirator). Oocytes are placed in the recording chamber, impaled with electrodes and continuously perfused (5–15 mL min^−1) with frog Ringer's solution. The tested compounds are applied by bath perfusion.
# Voltage protocols for evoking sodium channel currents: The standard holding potential for whole oocyte clamp is −120 mV. Standard current-voltage relationships are elicited by 40 ms depolarizing steps starting from −60 mV to +50 mV in 10 mV increments. Peak currents are measured as the maximum negative current after depolarizing voltage steps. The voltage from maximum current response is noted and used for the next voltage protocol.
# The purpose is to find compounds that are state dependent modifiers of neuronal sodium channels. Preferably, the compounds have a low affinity for the rested/closed state of the channel, but a high affinity for the inactivated state. The following voltage protocol is used to measure a compounds affinity for the inactivated state. Oocytes are held at a holding potential of −120 mV. At this membrane voltage, nearly all of the channels are in the closed state. Then a 4 second depolarization is made to the voltage where the maximum current is elicited. At the end of this depolarization, nearly all the channels are in the inactivated state. A 10 ms hyperpolarizing step is then made in order to remove some channels from the inactivated state. A final depolarizing test pulse is used to assay the sodium current after this prolonged depolarization (see analysis below). Sodium currents are measured at this test pulse before and after the application of the tested compound. Data is acquired using PCLAMP 8.0 software and analyzed with […] software (Axon instruments). […]
# Sequence of rBIIa/beta 1 sodium channels expressed in Xenopus oocytes (P04775 whole entry): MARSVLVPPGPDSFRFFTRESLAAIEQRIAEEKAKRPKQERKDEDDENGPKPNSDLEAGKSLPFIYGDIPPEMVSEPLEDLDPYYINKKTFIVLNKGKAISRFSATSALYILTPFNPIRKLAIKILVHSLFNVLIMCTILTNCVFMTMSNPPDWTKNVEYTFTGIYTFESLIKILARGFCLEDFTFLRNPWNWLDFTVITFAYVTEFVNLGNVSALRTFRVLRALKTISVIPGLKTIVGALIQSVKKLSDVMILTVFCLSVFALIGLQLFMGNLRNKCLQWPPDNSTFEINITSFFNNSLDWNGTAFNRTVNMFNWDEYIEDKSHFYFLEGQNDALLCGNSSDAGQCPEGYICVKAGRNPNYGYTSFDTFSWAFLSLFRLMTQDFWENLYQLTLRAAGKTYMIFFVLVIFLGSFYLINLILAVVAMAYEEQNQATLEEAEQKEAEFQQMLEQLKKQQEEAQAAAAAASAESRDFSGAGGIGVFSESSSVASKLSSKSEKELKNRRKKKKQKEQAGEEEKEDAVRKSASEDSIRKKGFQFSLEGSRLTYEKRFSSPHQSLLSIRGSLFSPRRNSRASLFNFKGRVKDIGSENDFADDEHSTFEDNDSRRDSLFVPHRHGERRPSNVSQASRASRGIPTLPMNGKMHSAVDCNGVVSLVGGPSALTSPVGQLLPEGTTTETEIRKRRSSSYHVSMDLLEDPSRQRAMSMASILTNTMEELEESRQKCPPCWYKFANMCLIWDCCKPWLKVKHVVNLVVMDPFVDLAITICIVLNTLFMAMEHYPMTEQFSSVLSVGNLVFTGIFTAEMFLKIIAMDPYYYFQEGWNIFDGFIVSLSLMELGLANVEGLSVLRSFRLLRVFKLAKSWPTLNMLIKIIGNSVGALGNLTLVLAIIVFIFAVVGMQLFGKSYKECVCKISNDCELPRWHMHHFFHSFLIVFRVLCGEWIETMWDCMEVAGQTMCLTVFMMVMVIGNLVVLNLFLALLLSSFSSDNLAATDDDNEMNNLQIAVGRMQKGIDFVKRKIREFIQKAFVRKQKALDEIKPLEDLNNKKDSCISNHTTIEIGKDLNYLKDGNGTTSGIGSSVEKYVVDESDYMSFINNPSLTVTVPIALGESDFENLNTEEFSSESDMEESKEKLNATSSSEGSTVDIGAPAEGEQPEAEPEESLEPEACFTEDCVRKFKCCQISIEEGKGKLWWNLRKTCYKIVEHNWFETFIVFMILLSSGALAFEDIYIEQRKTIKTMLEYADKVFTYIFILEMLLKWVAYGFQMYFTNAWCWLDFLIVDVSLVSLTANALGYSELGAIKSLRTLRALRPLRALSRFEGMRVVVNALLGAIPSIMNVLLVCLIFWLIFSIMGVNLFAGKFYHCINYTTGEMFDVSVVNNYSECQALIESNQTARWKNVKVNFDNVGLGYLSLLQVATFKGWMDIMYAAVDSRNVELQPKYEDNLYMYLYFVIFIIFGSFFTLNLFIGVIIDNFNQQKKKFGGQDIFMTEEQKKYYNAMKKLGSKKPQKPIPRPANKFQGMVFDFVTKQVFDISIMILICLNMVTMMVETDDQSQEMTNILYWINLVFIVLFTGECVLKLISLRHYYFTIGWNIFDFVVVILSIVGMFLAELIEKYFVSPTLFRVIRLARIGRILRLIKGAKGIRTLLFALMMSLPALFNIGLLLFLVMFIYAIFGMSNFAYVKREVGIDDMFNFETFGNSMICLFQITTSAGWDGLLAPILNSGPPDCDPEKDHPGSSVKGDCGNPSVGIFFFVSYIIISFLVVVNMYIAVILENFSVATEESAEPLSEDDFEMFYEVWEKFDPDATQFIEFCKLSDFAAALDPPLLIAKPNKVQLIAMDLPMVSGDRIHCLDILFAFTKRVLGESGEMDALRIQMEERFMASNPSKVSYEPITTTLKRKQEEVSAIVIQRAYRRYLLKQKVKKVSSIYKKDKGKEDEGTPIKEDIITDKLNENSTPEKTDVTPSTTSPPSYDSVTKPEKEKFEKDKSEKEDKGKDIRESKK
# Sequence of rBIIa/beta 1 sodium channels expressed in Xenopus oocytes (Q00954 19-218 partner): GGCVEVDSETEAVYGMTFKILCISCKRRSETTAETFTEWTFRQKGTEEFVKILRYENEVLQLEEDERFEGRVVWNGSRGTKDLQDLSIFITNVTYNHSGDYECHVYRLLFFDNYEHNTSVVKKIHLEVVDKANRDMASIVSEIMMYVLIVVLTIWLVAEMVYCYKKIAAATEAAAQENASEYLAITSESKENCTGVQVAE
row,SMILES,pKi
1,O=C1CSC(C=Cc2ccccc2)N1CCN1CCCCC1 (centres unmarked),5.06

# Same assay, conditions: apparent inhibition constant from single point inhibition data; rat brain type IIa/beta 1 Na+ channels in Xenopus oocytes; inactivated state; read-out: Ki (oocyte)
row,SMILES,pKi
1,O=C1CSC(c2ccc(-c3ccc(Cl)cc3)o2)N1CCN1CCCCC1 (centres unmarked),6.22
2,CC1SCC(=O)N1CCN1CCCCC1 (centres unmarked),4.15
3,O=C1CSC(c2cccc(OCc3ccccc3)c2)N1CCN1CCCCC1 (centres unmarked),6.41
4,CC(C)(C)c1ccc(Oc2cccc(C3SCC(=O)N3CCN3CCCCC3)c2)cc1 (centres unmarked),6.74
5,CC1CCCCN1CCCN1C(=O)CSC1c1cccc(Oc2cccc(C(F)(F)F)c2)c1 (centres unmarked),5.88
6,CC1CCCCN1CCCN1C(=O)CSC1c1cccc(Oc2ccc(Cl)c(Cl)c2)c1 (centres unmarked),6.06
7,O=C1CSC(c2ccc(Oc3ccc(F)cc3)cc2)N1C1CCN(Cc2ccccc2)CC1 (centres unmarked),6.55
8,CCn1c2ccccc2c2cc(C3SCC(=O)N3CCN3CCCC3)ccc21 (centres unmarked),5.13
9,O=C1CSC(C#Cc2ccccc2)N1CCN1CCCCC1 (centres unmarked),5.27
10,O=C1CSC(c2cccc(OCc3ccccc3)c2)N1CCCn1ccnc1 (centres unmarked),5.18
11,CN(C)CCN1C(=O)CSC1C=C(c1ccccc1)c1ccccc1 (centres unmarked),5.59
12,CN(C)CCN1C(=O)CSC1c1cccc(Oc2ccc(C(C)(C)C)cc2)c1 (centres unmarked),6.08
13,O=C1CSC(c2cccc(Oc3cccc(C(F)(F)F)c3)c2)N1Cc1ccccn1 (centres unmarked),5.47
14,COc1ccc(Oc2cccc(C3SCC(=O)N3CCN3CCCCC3)c2)cc1 (centres unmarked),6.10
15,O=C1CSC(c2cccc(Oc3ccc(Cl)c(Cl)c3)c2)N1CCN1CCOCC1 (centres unmarked),6.09
16,CN(C)CCN1C(=O)CSC1c1cccc(Oc2cc(Cl)cc(Cl)c2)c1 (centres unmarked),6.08
17,O=C1CSC(c2cccc(Oc3ccc(Cl)c(Cl)c3)c2)N1CCN1CCCCC1 (centres unmarked),6.74

row,SMILES,pKi
1,O=C1CSC(c2cccc(Oc3ccc(Cl)cc3)c2)N1CCN1CCCCC1 (centres unmarked),6.41
2,O=C1CSC(C=C(c2ccccc2)c2ccccc2)N1CCN1CCCC1 (centres unmarked),5.46
3,O=C1CSC(c2cccc(Oc3cccc(C(F)(F)F)c3)c2)N1CCCn1ccnc1 (centres unmarked),5.94
4,O=C1CSC(C=C(c2ccccc2)c2ccccc2)N1CCN1CCCCC1 (centres unmarked),6.54
5,O=C1CSC(c2cccc(Oc3ccccc3)c2)N1CCN1CCCCC1 (centres unmarked),6.37
6,CN(C)CCCN1C(=O)CSC1c1cccc(Oc2cccc(C(F)(F)F)c2)c1 (centres unmarked),5.56
7,O=C1CSC(c2cccc(Oc3ccc(Cl)c(Cl)c3)c2)N1CCN1CCCC1 (centres unmarked),6.14
8,CC(C)N(CCN1C(=O)CSC1c1cccc(Oc2cccc(C(F)(F)F)c2)c1)C(C)C (centres unmarked),7.52
9,O=C1CSC(c2cccc(OCc3ccccc3)c2)N1CCN1CCCC1 (centres unmarked),5.46
10,O=C1CSC(c2cccc(Oc3cccc(C(F)(F)F)c3)c2)N1CCNCc1ccccc1 (centres unmarked),7.30
11,O=C1CSC(c2ccc(Oc3ccc(F)cc3)cc2)N1CCN1CCCCC1 (centres unmarked),6.30
12,CN(C)CC(C)(C)CN1C(=O)CSC1c1cccc(Oc2cccc(C(F)(F)F)c2)c1 (centres unmarked),6.64
13,CN(C)CC(C)(C)CN1C(=O)CSC1c1cccc(Oc2ccc(Cl)c(Cl)c2)c1 (centres unmarked),6.41
14,O=C1CSC(c2cccc(Oc3ccccc3)c2)N1C1CCN(Cc2ccccc2)CC1 (centres unmarked),6.60
15,O=C1CSC(c2cccc(Oc3cccc(C(F)(F)F)c3)c2)N1CCN1CCCC1 (centres unmarked),6.38
16,CN(C)CCCN1C(=O)CSC1c1cccc(Oc2cc(Cl)cc(Cl)c2)c1 (centres unmarked),5.73
17,O=C1CSC(c2cccc3ccccc23)N1CCN1CCCCC1 (centres unmarked),5.55
